According to patent US8735398B2 (Bristol-Myers Squibb Company, priority 2009, dated 2014):

Each molecule was assayed on HCV 1b genotype (assay: HCV replicon assay (HCV-neo replicon cells, wild-type)). Conditions: HCV 1b genotype replicon; class symbol; read-out: EC50 Range against HCV 1b.
Type: cell-based, Hepatitis C virus
In short: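 Inhibition was tested in replicon-bearing cells, both wild-type HCV-neo and lines with NS5A resistance substitutions, using the O'Boyle et al. 2005 replicon method or luciferase-reporter formats.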
With `O=C(Nc1ccc(-c2cnc(-c3ccc(NC(=O)C4CC5CC5N4C(=O)C(O)c4ccccc4)cc3)o2)cc1)C1CC2CC2N1C(=O)C(O)c1ccccc1` [CB-5, (1S,3S,5S,1′S,3′S,5′S)-N,N′-(1,3-oxazole-2,5-diyldi-4,1-phenylene)bis(2-((2S)-2-hydroxy-2-phenylacetyl)-2-azabicyclo[3.1.0]hexane-3-carboxamide)] the EC50 was 4.57 to 99 nM.
`O=C(Nc1ccc(-c2cnc(-c3ccc(NC(=O)C4CC5CC5N4C(=O)C4CCCO4)cc3)o2)cc1)C1CC2CC2N1C(=O)C1CCCO1` [CB-7, (1S,3S,5S,1′S,3′S,5′S)-N,N′-(1,3-oxazole-2,5-diyldi-4,1-phenylene)bis(2-((2R)-tetrahydro-2-furanylcarbonyl)-2-azabicyclo[3.1.0]hexane-3-carboxamide)] gave an EC50 of 100 to 999 nM.

Same assay, conditions: HCV 1b genotype replicon; class symbols; read-out: EC50 Range against HCV 1b
`C[C@H](NC(=O)[C@H]1CCCO1)C(=O)Nc1ccc(-c2nnc(-c3ccc(NC(=O)[C@H](C)NC(=O)[C@H]4CCCO4)cc3)o2)cc1` [RK-35, (2R,2′R)-N,N′-(1,3,4-oxadiazole-2,5-diylbis(4,1-phenyleneimino((2S)-1-oxo-1,2-propanediyl)))ditetrahydro-2-furancarboxamide] showed an EC50 of 1000 to 10000 nM.
`O=C(Nc1ccc(-c2cnc(-c3ccc(NC(=O)[C@@H]4CCCN4C(=O)CN4CCCCC4)cc3)o2)cc1)[C@@H]1CCCN1C(=O)CN1CCCCC1` [XY-41, (2S,2′S)-N,N′-(1,3-oxazole-2,5-diyldi-4,1-phenylene)bis(1-(1-piperidinylacetyl)-2-pyrrolidinecarboxamide)] was tested, and the EC50 was 1000 to 10000 nM.
With `O=C(Nc1ccc(-c2cnc(-c3ccc(NC(=O)[C@@H]4CCCN4C(=O)Cc4cnc[nH]4)cc3)o2)cc1)[C@@H]1CCCN1C(=O)Cc1c[nH]cn1` [XY-14, (2S)-1-(1H-imidazol-4-ylacetyl)-N-(4-(2-(4-((((2S)-1-(1H-imidazol-5-ylacetyl)-2-pyrrolidinyl)carbonyl)amino)phenyl)-1,3-oxazol-5-yl)phenyl)-2-pyrrolidinecarboxamide (non-preferred name)] the EC50 was 1000 to 10000 nM.

Same assay, conditions: Hepatitis C virus, HCV 1b genotype replicon; class symbol; read-out: EC50 Range against HCV 1b
Work on `CN(C)[C@@H](C(=O)N1CCC[C@@H]1C(=O)N1CCC[C@H]1C(=O)Nc1ccc(-c2cnc(-c3ccc(NC(=O)[C@@H]4CCCN4C(=O)[C@H]4CCCN4C(=O)[C@@H](c4ccccc4)N(C)C)cc3)o2)cc1)c1ccccc1` [Example D-39, (2S,2′S)-N,N′-(1,3-oxazole-2,5-diyldi-4,1-phenylene)bis(1-(((2R)-1-((2R)-2-(dimethylamino)-2-phenylacetyl)-2-pyrrolidinyl)carbonyl)-2-pyrrolidinecarboxamide)] yielded an EC50 of 1000 to 10000 nM.
`O=C(Nc1ccc(-c2nnc(-c3ccc(NC(=O)[C@@H]4CCCN4C(=O)c4ccco4)cc3)o2)cc1)[C@@H]1CCCN1C(=O)c1ccco1` [RK-13, (2S,2′S)-N,N′-(1,3,4-oxadiazole-2,5-diyldi-4,1-phenylene)bis(1-(2-furoyl)-2-pyrrolidinecarboxamide)] was tested, and the EC50 was 100 to 999 nM.
`O=C(Nc1ccc(-c2cnc(-c3ccc(NC(=O)[C@@H]4CCCN4C(=O)C4CCCCN4CC4CCCCC4)cc3)o2)cc1)[C@@H]1CCCN1C(=O)C1CCCCN1CC1CCCCC1` (stereo partly drawn) [Example D-22, (2S,2′S)-N,N′-(1,3-oxazole-2,5-diyldi-4,1-phenylene)bis(1-((1-(cyclohexylmethyl)-2-piperidinyl)carbonyl)-2-pyrrolidinecarboxamide)] showed an EC50 of 100 to 999 nM.
With `COc1ccccc1C(=O)N1CCC[C@H]1C(=O)Nc1ccc(-c2nnc(-c3ccc(NC(=O)[C@@H]4CCCN4C(=O)c4ccccc4OC)cc3)o2)cc1` [RK-6, (2S,2′S)-N,N′-(1,3,4-oxadiazole-2,5-diyldi-4,1-phenylene)bis(1-(2-methoxybenzoyl)-2-pyrrolidinecarboxamide)] the EC50 was 100 to 999 nM.
`CN(C)C(C(=O)N1CCC[C@H]1C(=O)Nc1ccc(-c2cnc(-c3ccc(NC(=O)[C@@H]4CCCN4C(=O)C(c4ccccc4F)N(C)C)cc3)o2)cc1)c1ccccc1F` (stereo partly drawn) [Example D-4, (2S,2′S)-N,N′-(2,5-oxazolediyldi-4,1-phenylene)bis[1-[(dimethylamino)(2-fluorophenyl)acetyl]-2-pyrrolidinecarboxamide]] was tested, and the EC50 was < 4.57 nM.
Work on `O=C(Nc1ccc(-c2nnc(-c3ccc(NC(=O)[C@@H]4CCCN4C(=O)c4nc(Cl)cc5ccccc45)cc3)o2)cc1)[C@@H]1CCCN1C(=O)c1nc(Cl)cc2ccccc12` [RK-18, (2S,2′S)-N,N′-(1,3,4-oxadiazole-2,5-diyldi-4,1-phenylene)bis(1-((3-chloro-1-isoquinolinyl)carbonyl)-2-pyrrolidinecarboxamide)] yielded an EC50 of 1000 to 10000 nM.
In the case of `CC(=O)N1CCC[C@H]1C(=O)Nc1ccc(-c2cnc(-c3ccc(NC(=O)[C@@H]4CCCN4C(=O)Cc4ccccc4)cc3)o2)cc1` [MS-1, (2S)-1-acetyl-N-(4-(2-(4-((((2S)-1-(phenylacetyl)-2-pyrrolidinyl)carbonyl)amino)phenyl)-1,3-oxazol-5-yl)phenyl)-2-pyrrolidinecarboxamide], the EC50 is reported as 100 to 999 nM.
For `CC(C)C(=O)N1CCC[C@H]1C(=O)Nc1ccc(-c2cc(-c3ccc(NC(=O)[C@@H]4CCCN4C(=O)C(C)C)cc3)[nH]n2)cc1` [OL-31, (2S,2′S)-N,N′-(1H-pyrazole-3,5-diyldi-4,1-phenylene)bis(1-isobutyryl-2-pyrrolidinecarboxamide)], the EC50 was 100 to 999 nM.
`C[C@H](NC(=O)Cc1ccccc1)C(=O)Nc1ccc(-c2nnc(-c3ccc(NC(=O)[C@H](C)NC(=O)Cc4ccccc4)cc3)o2)cc1` [RK-23, (2S,2′S)-N,N′-(1,3,4-oxadiazole-2,5-diyldi-4,1-phenylene)bis(2-((phenylacetyl)amino)propanamide)] was tested, and the EC50 was 100 to 999 nM.
`O=C(Nc1ccc(-c2cc(-c3ccc(NC(=O)[C@@H]4CCCN4C(=O)[C@@H](O)c4ccccc4)cc3)[nH]n2)cc1)[C@@H]1CCCN1C(=O)[C@@H](O)c1ccccc1` [JG-33, (2S,2′S)-N,N′-(1H-pyrazole-3,5-diyldi-4,1-phenylene)bis(1-((2S)-2-hydroxy-2-phenylacetyl)-2-pyrrolidinecarboxamide)] gave an EC50 of 4.57 to 99 nM.
`C[C@H](NC(=O)c1cccc(Cl)n1)C(=O)Nc1ccc(-c2nnc(-c3ccc(NC(=O)[C@H](C)NC(=O)c4cccc(Cl)n4)cc3)o2)cc1` [RK-20, N,N′-(1,3,4-oxadiazole-2,5-diylbis(4,1-phenyleneimino((2S)-1-oxo-1,2-propanediyl)))bis(6-chloro-2-pyridinecarboxamide)] was tested, and the EC50 was 1000 to 10000 nM.

Same assay, conditions: Hepatitis C virus, HCV 1b genotype replicon; class symbols; read-out: EC50 Range against HCV 1b
For `Cc1cc(CC(=O)N2C[C@H](OC(C)(C)C)C[C@H]2C(=O)Nc2ccc(-c3cnc(-c4ccc(NC(=O)[C@@H]5C[C@@H](OC(C)(C)C)CN5C(=O)Cc5cc(C)no5)cc4)o3)cc2)on1` [XY-70, (2S,4R,2′S,4′R)-N,N′-(1,3-oxazole-2,5-diyldi-4,1-phenylene)bis(4-tert-butoxy-1-((3-methyl-5-isoxazolyl)acetyl)-2-pyrrolidinecarboxamide)], the EC50 was 4.57 to 99 nM.
`COc1ccccc1CC(=O)N1CCC[C@H]1C(=O)Nc1ccc(-c2cnc(-c3ccc(NC(=O)[C@@H]4CCCN4C(=O)Cc4ccccc4OC)cc3)o2)cc1` [XY-35, (2S,2′S)-N,N′-(1,3-oxazole-2,5-diyldi-4,1-phenylene)bis(1-((2-methoxyphenyl)acetyl)-2-pyrrolidinecarboxamide)] was tested, and the EC50 was 100 to 999 nM.
`Cc1cc(C(=O)N2CCC[C@H]2C(=O)Nc2ccc(-c3cnc(-c4ccc(NC(=O)[C@@H]5CCCN5C(=O)c5cc(C)c(C)o5)cc4)o3)cc2)oc1C` [XY-27, (2S,2′S)-N,N′-(1,3-oxazole-2,5-diyldi-4,1-phenylene)bis(1-(4,5-dimethyl-2-furoyl)-2-pyrrolidinecarboxamide)] was tested, and the EC50 was 100 to 999 nM.
